Test results reported in patent US7585864B2, “Farnesyl protein transferase inhibitors and their use to treat cancer” (Schering Corporation, priority 2004, dated 2009).

Key:
[1] = target: purified human farnesyl protein transferase (Homo sapiens, UniProt P49354+P49356); assay: FPT IC50 Assay; format: biochemical; conditions: transfer of [3H] farnesyl to biotinylated H-ras peptide (biotin-CVLS), 37° C., 60 minutes
Protocol: FPT activity was determined by measuring the transfer of [^3H] farnesyl from [^3H] farnesyl pyrophosphate to a biotinylated peptide derived from the C-terminus of H-ras (biotin-CVLS). The reaction mixture contains: 50 mM Tris pH7.7, 5 mM MgCl2, 5 μM Zn^++, 5 mM DTT, 0.1% Triton-X, 0.05 μM peptide, 0.03 nM purified human farnesyl protein transferase, 0.180 μM [^3H] farnesyl pyrophosphate, plus the indicated concentration of tricyclic compound or vehicle control in a total volume of 100 μl. The reaction was incubated in a Vortemp shaking incubator at 37° C., 45 RPM for 60 minutes and stopped with 150 μl of 0.25 M EDTA containing 0.5% BSA and 1.3 mg/ml Streptavidin SPA beads. Radioactivity was measured in a Wallach 1450 Microbeta liquid scintillation counter. Percent inhibition was calculated relative to the vehicle control.

[2] = tested on: Human tumor cells; assay: Soft Agar Assay (anchorage-independent growth); format: cell-based; conditions: colony outgrowth in 0.3% agarose, 10-16 days, MTT staining
Protocol: Anchorage-independent growth is a characteristic of tumorigenic cell lines. Human tumor cells can be suspended in growth medium containing 0.3% agarose and an indicated concentration of a farnesyl transferase inhibitor. The solution can be overlayed onto growth medium solidified with 0.6% agarose containing the same concentration of farnesyl transferase inhibitor as the top layer. After the top layer is solidified, plates can be incubated for 10-16 days at 37° C. under 5% CO2 to allow colony outgrowth. After incubation, the colonies can be stained by overlaying the agar with a solution of MTT (3-[4,5-dimethyl-thiazol-2-yl]-2,5-diphenyltetrazolium bromide, Thiazolyl blue) (1 mg/mL in PBS). Colonies can be counted and the IC50's can be determined.

Structure (SMILES)	IC50 [1] [nM]	IC50 [2] [nM]
Cc1cn(CCCN(Cc2ccccc2)C(=O)[C@H]2CN([C@H]3c4ccc(Cl)cc4OCc4cccnc43)CCN2C(=O)OC(C)(C)C)cn1 [Example 1]	3	28
Cc1cn(C[C@@H]2CCCN(C(=O)[C@@H]3CN([C@H]4c5ccc(Cl)cc5OCc5cccnc54)CCN3C(=O)OC(C)(C)C)C2)cn1 [Example 4]	0.12	< 5
Cc1cn(C[C@@H]2CCCN(C(=O)[C@H]3CN([C@@H]4c5ccc(Cl)cc5OCc5cccnc54)CCN3C(=O)OC3CCCCC3)C2)cn1 [Example 11]	0.16	
